{"source": "patent US20210338656A1", "about": "“IMMUNOSTIMULATORY AGENTS IN COMBINATION WITH ANGIOGENESIS INHIBITORS” (Alkermes Pharma Ireland Limited, priority 2020, published 2021)", "system": "gene expression in MC38 tumors", "assay": "RNA-Seq gene expression in MC38 tumors, Day 10", "assay_type": "in vivo, mouse", "description": "On Day 10 spleens and tumors were collected and weighed from all animals in Groups 7 through 12 and weighed prior to processing. Tissues from four animals in each group were processed to single cell suspensions for flow cytometry analysis at CRL-NC (described below). Tissues from the remaining six animals in each group were preserved in RNAlater, stored at −80° C.\nTumors and spleens were dissected on the appropriate day of the study and were weighed and immediately placed in RNAlater Stabilizing Reagent to preserve the tissue and stored overnight at 4 deg C. The following day, the samples were removed from RNA later and snap frozen and placed at −80 deg C.\nUnless otherwise indicated, everything was done on ice and the materials were prechilled on ice. The tissues were homogenized in TRIzol in Precellys tissue grinding tubes. After homogenization, the TRIzol solutions were transferred to 1.5 ml tubes and spun for 5 min at 12,000×g to eliminate the insoluble material. The TRIzol solutions were then transferred to Phasemaker tubes. Chloroform was added, the tubes were capped, and shaken vigorously for 15 seconds. The samples were then incubated at room temperature for 2-15 minutes and centrifuged at 12,000×g for 5 minutes. The upper, aqueous phase was then transferred to a new tube and an equal volume of 70% ethanol was added and it was vortexed. The liquid was then transferred to Qiagen RNeasy columns and centrifuged at 8000×g. DNAse was added to each tube to eliminate any residual DNA. The columns were then washed and eluted as directed by the kit. The RNA concentrations were determined using a Qubit.\nLibraries were prepared for sequencing by using the Mouse Transcriptome Ion AmpliSeq Library Preparation on the Ion Chef System as directed by the manufacturer. Eight samples of purified RNA and 8 unique IonCode molecular barcodes were added to a 96 well plate and were prepared at a time. After the libraries were prepared, they were templated and loaded onto an Ion Torrent 540 chip using the Ion 540 Chef Kit from ThermoFisher. The 540 chips were then loaded into a Gene Studio S5 sequencer and sequenced.\nRaw sequencing data was processed by Torrent Suite (v5.8.0) software that came with the Gene Studio sequencer (ThermoFisher). For each sample, this program summarized gene expression in a CHP file. The CHP files were then loaded into the Transcriptome Analysis Console (TAC) program (ThermoFisher).", "key": {"[1]": {"conditions": "T cell signaling gene, MC38 tumors Day 10 RNA-Seq, lucitanib 10 mg/kg po, SEQ ID NO. 2 3 mg/kg sc"}, "[2]": {"conditions": "Type I/II interferon pathway gene, MC38 tumors Day 10 RNA-Seq, lucitanib 10 mg/kg po, SEQ ID NO. 2 3 mg/kg sc"}, "[3]": {"conditions": "antigen presentation gene, MC38 tumors Day 10 RNA-Seq, lucitanib 10 mg/kg po, SEQ ID NO. 2 3 mg/kg sc"}}, "data": [{"smiles": "CNC(=O)c1cccc2cc(Oc3ccnc4cc(OCC5(N)CC5)c(OC)cc34)ccc12", "note": "[Lucitanib, 6-(7-((1-Aminocyclopropyl)-methoxy)-6-methoxyquinolin-4-yloxy)-N-methyl-1-naphthamide]", "values": [{"measurement": "Cd3e mean expression value relative to vehicle group", "setting": "[1]", "value": 2.49}, {"measurement": "Cd4 mean expression value relative to vehicle group", "setting": "[1]", "value": 2.67}, {"measurement": "Cd8a mean expression value relative to vehicle group", "setting": "[1]", "value": 2.03}, {"measurement": "Cd8b1 mean expression value relative to vehicle group", "setting": "[1]", "value": 3.57}, {"measurement": "Cd28 mean expression value relative to vehicle group", "setting": "[1]", "value": 5.49}, {"measurement": "Cd247 mean expression value relative to vehicle group", "setting": "[1]", "value": 1.44}, {"measurement": "Cd3d mean expression value relative to vehicle group", "setting": "[1]", "value": 3.14}, {"measurement": "Ctla4 mean expression value relative to vehicle group", "setting": "[1]", "value": 4.10}, {"measurement": "H2-Aa mean expression value relative to vehicle group", "setting": "[1]", "value": 1.59}, {"measurement": "H2-Ab1 mean expression value relative to vehicle group", "setting": "[1]", "value": 1.12}, {"measurement": "H2-Eb1 mean expression value relative to vehicle group", "setting": "[1]", "value": 1.66}, {"measurement": "Icos mean expression value relative to vehicle group", "setting": "[1]", "value": 6.03}, {"measurement": "Ifng mean expression value relative to vehicle group", "setting": "[1]", "value": 2.74}, {"measurement": "Il2 mean expression value relative to vehicle group", "setting": "[1]", "value": 0.60}, {"measurement": "Lck mean expression value relative to vehicle group", "setting": "[1]", "value": 1.36}, {"measurement": "Lcp2 mean expression value relative to vehicle group", "setting": "[1]", "value": 0.40}, {"measurement": "Nfatc2 mean expression value relative to vehicle group", "setting": "[1]", "value": 0.34}, {"measurement": "Pdcd1 mean expression value relative to vehicle group", "setting": "[1]", "value": 0.75}, {"measurement": "Ptpn22 mean expression value relative to vehicle group", "setting": "[1]", "value": 1.16}, {"measurement": "Ptprc mean expression value relative to vehicle group", "setting": "[1]", "value": 2.25}, {"measurement": "Zap70 mean expression value relative to vehicle group", "setting": "[1]", "value": 1.46}, {"measurement": "B2m mean expression value relative to vehicle group", "setting": "[2]", "value": 0.32}, {"measurement": "Bst2 mean expression value relative to vehicle group", "setting": "[2]", "value": 0.75}, {"measurement": "Cd44 mean expression value relative to vehicle group", "setting": "[2]", "value": "−0.26"}, {"measurement": "Ciita mean expression value relative to vehicle group", "setting": "[2]", "value": 0.62}, {"measurement": "Fcgr1 mean expression value relative to vehicle group", "setting": "[2]", "value": 1.56}, {"measurement": "Gm10499 mean expression value relative to vehicle group", "setting": "[2]", "value": 0.04}, {"measurement": "H2-Aa mean expression value relative to vehicle group", "setting": "[2]", "value": 1.59}, {"measurement": "H2-Ab1 mean expression value relative to vehicle group", "setting": "[2]", "value": 1.12}, {"measurement": "H2-Eb1 mean expression value relative to vehicle group", "setting": "[2]", "value": 1.66}, {"measurement": "H2-K1 mean expression value relative to vehicle group", "setting": "[2]", "value": 0.26}, {"measurement": "H2-Q10 mean expression value relative to vehicle group", "setting": "[2]", "value": 0.32}, {"measurement": "Icam1 mean expression value relative to vehicle group", "setting": "[2]", "value": 0.43}, {"measurement": "Ifi35 mean expression value relative to vehicle group", "setting": "[2]", "value": 0.62}, {"measurement": "Ifit2 mean expression value relative to vehicle group", "setting": "[2]", "value": 0.25}, {"measurement": "Ifitm1 mean expression value relative to vehicle group", "setting": "[2]", "value": 0.38}, {"measurement": "Ifna2 mean expression value relative to vehicle group", "setting": "[2]", "value": 0}, {"measurement": "Ifnar1 mean expression value relative to vehicle group", "setting": "[2]", "value": "−0.01"}, {"measurement": "Ifnar2 mean expression value relative to vehicle group", "setting": "[2]", "value": 0.39}, {"measurement": "Ifnb1 mean expression value relative to vehicle group", "setting": "[2]", "value": 0.12}, {"measurement": "Ifng mean expression value relative to vehicle group", "setting": "[2]", "value": 2.74}, {"measurement": "Ifngr1 mean expression value relative to vehicle group", "setting": "[2]", "value": 0.84}, {"measurement": "Irf1 mean expression value relative to vehicle group", "setting": "[2]", "value": 0.3}, {"measurement": "Irf4 mean expression value relative to vehicle group", "setting": "[2]", "value": 1.23}, {"measurement": "Irf5 mean expression value relative to vehicle group", "setting": "[2]", "value": 0.02}, {"measurement": "Irf8 mean expression value relative to vehicle group", "setting": "[2]", "value": 0.38}, {"measurement": "Mx1 mean expression value relative to vehicle group", "setting": "[2]", "value": 1.14}, {"measurement": "Ncam1 mean expression value relative to vehicle group", "setting": "[2]", "value": 0.14}, {"measurement": "Pml mean expression value relative to vehicle group", "setting": "[2]", "value": 0.19}, {"measurement": "Ptpn6 mean expression value relative to vehicle group", "setting": "[2]", "value": 0.25}, {"measurement": "Socs3 mean expression value relative to vehicle group", "setting": "[2]", "value": "−0.24"}, {"measurement": "Tyk2 mean expression value relative to vehicle group", "setting": "[2]", "value": "−0.16"}, {"measurement": "Vcam1 mean expression value relative to vehicle group", "setting": "[2]", "value": 0.52}, {"measurement": "B2m mean expression value relative to vehicle group", "setting": "[3]", "value": 0.32}, {"measurement": "Btk mean expression value relative to vehicle group", "setting": "[3]", "value": 0.42}, {"measurement": "Cd14 mean expression value relative to vehicle group", "setting": "[3]", "value": 0.26}, {"measurement": "Cd36 mean expression value relative to vehicle group", "setting": "[3]", "value": 4.37}, {"measurement": "Cd74 mean expression value relative to vehicle group", "setting": "[3]", "value": 1.18}, {"measurement": "Ctsc mean expression value relative to vehicle group", "setting": "[3]", "value": 0.36}, {"measurement": "Ctss mean expression value relative to vehicle group", "setting": "[3]", "value": 2.29}, {"measurement": "Cybb mean expression value relative to vehicle group", "setting": "[3]", "value": 1.66}, {"measurement": "Fcgr1 mean expression value relative to vehicle group", "setting": "[3]", "value": 1.56}, {"measurement": "H2-Aa mean expression value relative to vehicle group", "setting": "[3]", "value": 1.59}, {"measurement": "H2-Ab1 mean expression value relative to vehicle group", "setting": "[3]", "value": 1.12}, {"measurement": "H2-DMa mean expression value relative to vehicle group", "setting": "[3]", "value": 1.18}, {"measurement": "H2-DMb2 mean expression value relative to vehicle group", "setting": "[3]", "value": 0.84}, {"measurement": "H2-Ea-ps mean expression value relative to vehicle group", "setting": "[3]", "value": 0}, {"measurement": "H2-Eb1 mean expression value relative to vehicle group", "setting": "[3]", "value": 1.66}, {"measurement": "H2-K1 mean expression value relative to vehicle group", "setting": "[3]", "value": 0.26}, {"measurement": "H2-Ob mean expression value relative to vehicle group", "setting": "[3]", "value": 2.19}, {"measurement": "H2-Q10 mean expression value relative to vehicle group", "setting": "[3]", "value": 0.32}, {"measurement": "Ly96 mean expression value relative to vehicle group", "setting": "[3]", "value": 0.58}, {"measurement": "Ncf4 mean expression value relative to vehicle group", "setting": "[3]", "value": 0.62}, {"measurement": "Psmb9 mean expression value relative to vehicle group", "setting": "[3]", "value": 0.6}, {"measurement": "Tap1 mean expression value relative to vehicle group", "setting": "[3]", "value": 0.51}, {"measurement": "Tlr1 mean expression value relative to vehicle group", "setting": "[3]", "value": 0.51}, {"measurement": "Tlr2 mean expression value relative to vehicle group", "setting": "[3]", "value": 0.12}, {"measurement": "Tlr4 mean expression value relative to vehicle group", "setting": "[3]", "value": 1.1}, {"measurement": "Esm1 expression, a target of VEGF signaling", "setting": "tumors", "value": "decrease"}, {"measurement": "expression of genes associated with cytotoxic immune cell function, T cell activation, and antigen presentation", "setting": "tumors", "value": "Increased expression"}]}]}
